Where “and” joins values, the source holds several entries; their conditions need not be identical. Identical values can stand only once. Like-named read-outs stand apart in the source and are kept apart here.
Key:
[1] = target: T1, hLAT1/4F2hc (Homo sapiens, UniProt Q01650); experiment: Concentration-dependent cellular uptake into HEK-hLAT1 cells (LC-MS/MS, Michaelis-Menten); type: cell-based; details: for Vmax / Km: HEK-hLAT1 cells; for Vmax: 2-400 μM, 10 min
T1 construct: Invitrogen (host cells)
T1 sequence (Q01650 whole entry): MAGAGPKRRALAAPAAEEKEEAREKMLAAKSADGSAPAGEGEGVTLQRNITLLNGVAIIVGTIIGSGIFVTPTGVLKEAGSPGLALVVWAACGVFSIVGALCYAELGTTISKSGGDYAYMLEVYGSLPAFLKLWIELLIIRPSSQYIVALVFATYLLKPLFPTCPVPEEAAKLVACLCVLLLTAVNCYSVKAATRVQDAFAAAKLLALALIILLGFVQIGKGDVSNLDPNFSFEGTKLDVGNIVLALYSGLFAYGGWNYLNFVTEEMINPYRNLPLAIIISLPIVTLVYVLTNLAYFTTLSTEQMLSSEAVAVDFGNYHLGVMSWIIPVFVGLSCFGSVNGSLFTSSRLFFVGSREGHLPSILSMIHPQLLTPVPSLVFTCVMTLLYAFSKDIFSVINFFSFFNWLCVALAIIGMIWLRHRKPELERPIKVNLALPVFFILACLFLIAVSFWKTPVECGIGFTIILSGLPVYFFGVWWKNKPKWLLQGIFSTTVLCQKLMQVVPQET
T1 sequence (P08195 102-630 partner): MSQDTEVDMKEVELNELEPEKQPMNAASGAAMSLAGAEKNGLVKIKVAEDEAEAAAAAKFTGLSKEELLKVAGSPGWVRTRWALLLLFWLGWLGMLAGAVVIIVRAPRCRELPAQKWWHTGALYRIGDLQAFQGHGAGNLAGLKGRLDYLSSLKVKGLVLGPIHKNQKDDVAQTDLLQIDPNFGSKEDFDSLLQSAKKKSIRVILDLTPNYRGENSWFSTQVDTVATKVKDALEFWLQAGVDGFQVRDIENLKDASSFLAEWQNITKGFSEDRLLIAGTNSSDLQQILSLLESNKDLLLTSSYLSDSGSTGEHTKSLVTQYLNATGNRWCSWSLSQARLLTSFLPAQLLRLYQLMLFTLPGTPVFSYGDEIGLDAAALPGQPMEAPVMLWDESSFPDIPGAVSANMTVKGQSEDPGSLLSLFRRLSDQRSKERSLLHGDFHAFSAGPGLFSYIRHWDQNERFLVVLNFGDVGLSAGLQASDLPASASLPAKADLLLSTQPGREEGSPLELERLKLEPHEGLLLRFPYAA
Procedure: (§1) The concentrations for the compounds were in the range of 2–400 μM. Otherwise, the experiment was carried out as described above and analyzed by liquid chromatography coupled with an electrospray ionization (ESI) triple quadrupole mass spectrometer (LC–MS–MS). […]
(§2) The concentration-dependent uptake studies were performed by adding 2–400 μM of the tested compound in 250 μL of prewarmed HBSS buffer on the cell layer. […] After incubation, the cells were washed and lysed as described above. The lysate was collected from wells into an Eppendorf tube and centrifuged at 4 °C, the supernatant was collected, and the intracellular concentrations of studied compounds were analyzed by liquid chromatography coupled with an ESI triple quadrupole mass spectrometer (LC–MS–MS). The results were calculated from the standard curve that was prepared by spiking known amounts of each compound to the cell lysate and normalized to protein concentration. The protein concentrations on each plate were determined as a mean of three samples by Bio-Rad Protein Assay, based on the Bradford dye-binding method, using BSA as a standard protein and measuring the absorbance (595 nm) by a multiplate reader (EnVision, PerkinElmer, Inc., Waltham, MA, USA). All statistical analyses (Michaelis–Menten kinetic parameters) were performed using GraphPad Prism v. 5.03 software (GraphPad Software, San Diego, CA., USA). […]
(§3) After protein precipitation, the samples were centrifuged for 10 min with 10,000 g at 4 °C. The supernatant was then collected and transferred to vials for LC–MS/MS analysis. For BCH and gabapentin, cells were also lysed with 0.1 M NaOH, an aliquot was taken from the lysates, and perchloric acid (PCA) was added to precipitate the proteins. The samples were then centrifuged, and the supernatant was diluted 1:10 with H20 with 0.1% formic acid including the IS and transferred to vials for analysis.
(§4) The samples were analyzed with LC–MS/MS coupled with an Agilent 1200 series Rapid Resolution LC System (Agilent Technologies, Waldbronn, Germany) and an Agilent 6410 Triple Quadrupole with electrospray ionization (ESI) (Agilent Technologies, Palo Alto, CA, USA). […] The aqueous mobile phase was 0.1% formic acid in water (A), while the organic mobile phase was 0.1% formic acid in acetonitrile (B). […] For compound 4: 0–4 min 10% → 90% B, 4–6 min 90% B, 6–6.1 min 90% → 10%, 6.1–9 min 10%. For compound 5: 0–1 min 20% → 95% B, 1–4 min 95%, 4–4.1 min 95% → 20%, 4.1–7 min 20%. For compounds 6 and 9: 0–2 min 10% → 95%, 2–6 min 95%, 6–6.1 min 95% → 10%, 6.1–9 min 10%. For compound 8: 0–1 min 20% → 80%, 1–5.2 min 80%, 5.2–5.3 min 80% → 20%, 5.3–9 min 20%.

[2] = test system: HEK-MOCK cells; experiment: Concentration-dependent cellular uptake into HEK-MOCK cells; type: cell-based, human; details: for Vmax: 10 min
Procedure: as §1, §2, §3, §4

[3] = target: T1, hLAT1/4F2hc; experiment: cis-inhibition of [14C]-L-leucine uptake in HEK-hLAT1 cells; type: cell-based; details: for inhibition at 50 µM: read-out: [14C]-L-Leucine uptake inhibition % (50μM)
Procedure: (§5) In the following experiments, the MCF-7, HEK-hLAT1, and HEK-MOCK cells were cultured, seeded, and preincubated as described above. The HBSS was removed, and the ability of the compounds to inhibit the uptake of a known LAT1 substrate, [^14C]-L-leucine (PerkinElmer, Waltham, MA, USA), was studied by incubating the cells at RT for 10 min in uptake buffer pH 7.4 (250 μL) containing 0.76 μM (0.1 mCi/mL) of [^14C]-L-leucine and 0.025–1800 μM of the studied compound (or HBSS as blank). After incubation, the reaction was stopped with ice-cold HBSS, and the cells were washed two times with ice-cold HBSS. The cells were then lysed with 250 μL of 0.1 M sodium hydroxide, the lysate was mixed with 1.0 mL of Emulsifier safe cocktail (PerkinElmer, Waltham, MA, USA), and the radioactivity was measured with a liquid scintillation counter (MicroBeta^2 counter, PerkinElmer, Waltham, MA, USA). The inhibition of [^14C]-L-leucine in the presence of the studied compounds as compared to the control (HBSS) was calculated as percentages (%).
Using the stably hLAT1/4F2hc expressing cell line, the compounds’ inhibitory efficiencies and uptake kinetics were determined via the cis-inhibition assay and uptake studies, respectively. (Table 1) Cis-inhibition is based on the competition between the ligand and LAT1 substrate [^14C]-L-leucine that results in inhibition of substrate uptake. The competitive uptake with L-leucine is reported as the IC50 value of L-leucine uptake and extent as inhibition percentage (%) at a given concentration.

[4] = test system: HEK-MOCK cells; experiment: cis-inhibition of [14C]-L-leucine uptake in HEK-MOCK cells; type: cell-based, human; details: HEK-MOCK cells, known substrates; for IC50: read-out: IC50 of [14C]-L-leucine uptake
Procedure: as §5
Using the stably hLAT1/4F2hc expressing cell line, the compounds’ inhibitory efficiencies and uptake kinetics were determined via the cis-inhibition assay and uptake studies, respectively. (Table 1) Cis-inhibition is based on the competition between the ligand and LAT1 substrate [^14C]-L-leucine that results in inhibition of substrate uptake. The competitive uptake with L-leucine is reported as the IC50 value of L-leucine uptake and extent as inhibition percentage (%) at a given concentration. Overall, the inhibition trends of the tested compounds were similar between HEK-hLAT1 and MCF-7 cells. In the next step, more straightforward results were obtained by undertaking direct cellular uptake studies with both HEK-hLAT1 and HEK-MOCK cells. This experiment enabled us to determine not only the uptake kinetics (Vmax and Km) of the ligands but also their preference for LAT1-expressing cells over the comparator HEK-MOCK cells.

[5] = target: T2, LAT1 in MCF-7 human breast cancer cells (Homo sapiens, UniProt Q01650); experiment: cis-inhibition of [14C]-L-leucine uptake in MCF-7 cells; type: cell-based; details: for inhibition at 50 µM: MCF7, MCF-7 cells, 50 μM compound; for IC50: MCF-7 cells
T2 construct: wild-type MCF-7 human breast cancer cell line; endogenous in cells; host or cells: MCF-7 human breast cancer cells (wild type)
T2 sequence (Q01650 whole entry): as the sequence (Q01650 whole entry) above
T2 sequence (P08195 102-630 partner): as the sequence (P08195 102-630 partner) above
Procedure: Cells were cultured in DMEM (Gibco, ThermoFisher Scientific, Waltham, MA, USA) supplemented with L-glutamine (2 mM; ThermoFisher Scientific, Waltham, MA, USA), heat-inactivated fetal bovine serum (10%; Gibco, ThermoFisher Scientific, Waltham, MA, USA), penicillin (50 U/mL)-streptomycin (50 μg/mL) solution (ThermoFisher Scientific, Waltham, MA, USA), and hygromycin B solution (100 μg/mL) for transfected cells. HEK-hLAT1 and HEK-MOCK cells (passages 7–20) were seeded at a density of 5 × 10^5 cells/wells onto 24-well plates. The cells were used in the characterization, competition, and uptake studies 2 days after seeding. MCF-7 cells were seeded at a density of 1 × 10^5 and were used in the competition studies 1 day after seeding. The culture medium was removed, and the cells were washed with prewarmed Hanks’ balanced salt solution (HBSS; 125 mM NaCl, 4.8 mM KCl, 1.2 mM MgSO4, 1.2 mM KH2PO4, 1.3 mM CaCl2, 5.6 mM D-glucose, and 25 mM HEPES, pH 7.4). The cells were then incubated with HBSS at 37 °C for 10 min before the experiments.
as §5

[6] = target: T1, hLAT1/4F2hc; experiment: Concentration-dependent cellular uptake into HEK-hLAT1 cells (LC-MS/MS, Michaelis-Menten); type: cell-based; details: difference in uptake HEK-hLAT1 vs HEK-MOCK, with docking poses; 2-100 μM curves
[7] = known LAT1 substrates, 2-400 μM, n = 3
[8] = HEK-hLAT1 cells, 50 μM compound, 0.76 μM [14C]-L-leucine, 10 min, known substrates
[9] = HEK-hLAT1 cells, known substrates, read-out: IC50 of [14C]-L-leucine uptake
[10] = 50 μM compound, 0.76 μM [14C]-L-leucine, 10 min
[11] = HEK-hLAT1 cells, 50 μM compound, compounds 1-12
[12] = HEK-hLAT1 cells, compounds 1-12, read-out: IC50 of [14C]-L-leucine uptake

Compound	Vmax [2, 7]	Km ([2]; known LAT1 substrates, n = 3) [µM]	inhibition at 50 µM [3, 11] [%]	IC50 [3, 12] [µM]	inhibition at 50 µM [5] [%]	IC50 [5] [µM]	interaction class with LAT1 (interaction and transportability) [6]	Km ([2]; compounds 1-12) [µM]	Vmax ([2]; compounds 1-12, 2-400 μM)	other results
NCC1(CC(=O)O)CCCCC1 [Gabapentin, reference compound]	4.7±1.6 nmol/min/mg of protein	182 ± 86	–	–	–	–	–	–	–	Vmax ([1]; known LAT1 substrates, n = 3): 18±9.9 nmol/min/mg of protein; Km ([1]; known LAT1 substrates, n = 3, read-out: Km): 552 ± 334 µM; inhibition at 50 µM [3, 8]: 46.7 ± 1.7%; IC50 [3, 9]: 36 µM; [14C]-L-Leucine uptake inhibition % (50μM) [4, 10]: no inhibition; IC50 ([4]; Homo sapiens): > 1000 µM
NC1(C(=O)O)CC2CCC1C2 (stereo not shown) [BCH, reference compound]	2.6±0.6 nmol/min/mg of protein	155 ± 50	–	–	–	–	–	–	–	inhibition at 50 µM [3, 8]: 51.8 ± 2.1%; IC50 [3, 9]: 28 µM; inhibition at 50 µM ([4]; Homo sapiens, 10 min, 50 μM compound, 0.76 μM [14C]-L-leucine, 10 min, read-out: [14C]-L-Leucine uptake inhibition % (50μM)): 5.8 ± 1%; IC50 ([4]; Homo sapiens): 203 µM
N[C@@H](Cc1ccc(N(CCCl)CCCl)cc1)C(=O)O [Melphalan, reference compound]	0.07±0.09 nmol/min/mg of protein	91 ± 21	–	–	–	–	–	–	–	Vmax ([1]; known LAT1 substrates, n = 3): 0.08±0.01 nmol/min/mg of protein; Km ([1]; known LAT1 substrates, n = 3): 35 ± 7 µM; IC50 [3]: 6.6 µM; inhibition at 50 µM [3]: 38.2 ± 2.4%; [14C]-L-Leucine uptake inhibition % (50μM) [4, 10]: no inhibition
CC(C(=O)Nc1cccc(C[C@H](N)C(=O)O)c1)c1ccc(-c2ccccc2)c(F)c1 (stereo partly shown) [Compound 11]	–	–	26.4 ± 3.1	> 100	84 ± 3.1	2.2 ± 1.3	not interacting with LAT1	–	–	–
CNC(=O)COc1ccc(-c2c(C#N)c(NC(=O)c3cccc(C[C@H](N)C(=O)O)c3)n3c(nc4ccccc43)c2C#N)cc1 [Compound 6]	–	–	29 ± 2.8	> 100	48 ± 12	–	medium interactions	201 ± 344	74±92 pmol/min/mg of protein	–
COc1ccc2cc(C(C)C(=O)Nc3cccc(C[C@H](N)C(=O)O)c3)ccc2c1 (stereo partly shown) [Compound 12]	–	–	28 ± 2.6	> 100	83 ± 1.7	5.6 ± 1.3	not interacting with LAT1	–	–	–
N[C@@H](Cc1cccc(NC(=O)c2ccccc2O)c1)C(=O)O [Compound 1]	–	–	8.1 ± 6.9	> 100	66 ± 3.9	3.3 ± 1.3	highest interactions	10 ± 2.7	94±5.4 pmol/min/mg of protein	Vmax ([1]; compounds 1-12): 3714±371 pmol/min/mg of protein; Km ([1]; compounds 1-12, read-out: Km): 105 ± 17 µM
CC(C)Cc1ccc(C(C)C(=O)Nc2cccc(C[C@H](N)C(=O)O)c2)cc1 (stereo partly shown) [Compound 7]	–	–	20 ± 2.5	57	69 ± 4.3	20 ± 1.3	medium interactions	–	–	–
CCCC(CCC)C(=O)Nc1cccc(C[C@H](N)C(=O)O)c1 [Compound 4]	–	–	–	> 100	–	81 ± 1.4	highest interactions	277	292 pmol/min/mg of protein and 292±710 pmol/min/mg of protein	Vmax ([1]; compounds 1-12): 1027 pmol/min/mg of protein and 1027±170 pmol/min/mg of protein; Km ([1]; compounds 1-12, read-out: Km): 111 ± 30 µM; potency for hLAT1 relative to HEK-MOCK (Km ratio) ([1]; Km 111 μM HEK-hLAT1 vs 277 μM HEK-MOCK): more than two-fold; Vmax (uptake rate) in HEK-hLAT1 cells relative to HEK-MOCK cells ([1]; ratio of Vmax values): around three; [14C]-L-Leucine uptake inhibition % (50μM) [3, 11]: no inhibition

From article PMC9811466, “Structural Features Affecting the Interactions and Transportability of LAT1-Targeted Phenylalanine Drug Conjugates” (Molecular Pharmaceutics, 2022)
